Data on 5 compounds can be found in patent publication US11999806B2, “Broad-spectrum polypeptide against enterovirus and application thereof” (WUHAN INSTITUTE OF VIROLOGY, CHINESE ACADEMY OF SCIENCES, priority 2018, dated 2024).

“And” between values parts separate entries of the source, which are not always exact repeats. Equal values may be shown once. No end group written: not given here.

The nature of data set [1]: Cytotoxicity by CCK-8 in RD cells. Format: cell-based. Conditions: human; for viability at 24 h, 0.01 µM: 0.01 μM polypeptide; for viability at 24 h, 0.01 µM / viability at 24 h, 0.1 µM / viability at 24 h, 1 µM / viability at 24 h, 10 µM / viability at 24 h, 100 µM: untreated = 100%, read-out: Cell viability (%); for viability at 24 h, 0.1 µM: 0.1 μM polypeptide; for viability at 24 h, 1 µM: 1 μM polypeptide; for viability at 24 h, 10 µM: 10 μM polypeptide; for viability at 24 h, 100 µM: 100 μM polypeptide; for CC50 at 24 h: Table 1 summary, cell line not given, read-out: CC50. On the procedure: (§1) The experiment was performed as follows. • (1) RD cells were plated in a 96-well plate at 100 μl per well. • (2) After the cells reached 70%-80% confluence, the MEM medium containing 10% serum was replaced with a MEM medium containing 2% serum. Then, polypeptide P2 was added to generate gradient concentrations of 0.01 μM, 0.1 μM, 1 μM, 10 μM, and 100 μM (final concentration), respectively. • (3) The test was performed 24 hours after the addition of the polypeptide, and 10 μl of viable cell detection reagent CCK-8 was added to each well and mixed well. • (4) The plate was incubated at 37° C. for 2 h. • (5) The absorbance value at OD450 was measured with a microplate reader.
as §1, with “P1” for “P2”, “concentrations),” for “concentration),”
(§2) RD cells were used to test the antiviral effect of polypeptide P1. When RD cells reached 80% confluence, polypeptide P1 was added at concentrations of 0 μM (control group), 0.01 μM, 0.1 μM, 1 μM, 10 μM, and 100 μM, respectively. Three parallel wells were used for each concentration. The test was carried out 24 hours later, and the cell viability was detected using the CCK-8 kit.
as §1, with “3A-TAT-EP” for “P2”, “concentrations),” for “concentration),”
(§3) RD cells were used to test the antiviral effect of polypeptide 3A-TAT-EP. When RD cells reached 80% confluence, polypeptide 3A-TAT-EP was added at concentrations of 0 μM (control group), 0.01 μM, 0.1 μM, 1 μM, 10 μM, and 100 μM, respectively. Three parallel wells were used for each concentration. The test was carried out 24 hours later, and the cell viability was detected using the CCK-8 kit.
as §1, with “Then, 3A-EP-DRI or 3A-EP-PEG4-PA” for “Then, polypeptide P2”, “and 50” for “and 100”, “(final concentrations),” for “(final concentration),”
(§4) RD cells were used to test the antiviral effect of polypeptides 3A-EP-DRI and 3A-EP-PEG4-PA. When RD cells reached 80% confluence, polypeptide 3A-EP-DRI or 3A-EP-PEG4-PA was added at concentrations of 0 μM (control group), 0.01 μM, 0.1 μM, 1 μM, 10 μM, and 50 μM, respectively. Three parallel wells were used for each concentration. The test was carried out 24 hours later, and the cell viability was detected using the CCK-8 kit. […]

The subject of data set [2] is RD cells. The data set can be described thus: Cytotoxicity by CCK-8 in RD cells. Format: cell-based. Conditions: RD cells; for Cell viability (%): 24 h, untreated = 100%; for cytotoxicity, result in words: CCK-8, 24 h. On the procedure: as §1
as §1, with “P1” for “P2”, “concentrations),” for “concentration),”
as §2
as §1, with “3A-TAT-EP” for “P2”, “concentrations),” for “concentration),”
as §3
as §1, with “Then, 3A-EP-DRI or 3A-EP-PEG4-PA” for “Then, polypeptide P2”, “and 50” for “and 100”, “(final concentrations),” for “(final concentration),”
as §4

Data set [3] deals with EV71. The data set can be described thus: Anti-EV71 efficiency in RD cells, viral RNA by qRT-PCR. It is filed as cell-based, enterovirus 71. Conditions: 24 h, control infected without polypeptide. On the procedure:
• (1) RD cells were plated in five 100 mm dishes. • (2) After the cells reached 70%-80% confluence, the MEM medium containing 10% serum was replaced with a MEM medium containing 2% serum. […] When the changes were obvious, samples were collected as follows. • (4) The supernatant in the 100 mm dish was transferred into a 15 ml centrifuge tube, and centrifuged at 500 g for 5 min. • (5) The supernatant was transferred into a new 15 ml centrifuge tube, and filtered through 0.22 μm filter membrane with a 50 ml syringe. • (6) RNA was extracted from 100 μl of the supernatant obtained in step (5) and subjected to one step qRT-PCR to measure the virus titer, and the previously extracted virus RNA with known titer was handled together as a control. 3. Measure Antiviral Efficiency of Polypeptide in RD Cells. • (1) Different cells were plated in 24-well cell plates. • (2) After the cells reached 70%-80% confluence, the MEM medium containing 10% serum was replaced with a MEM medium containing 2% serum (0.5 ml/well), and 5 μl of 10^6 PFU/mL EV71 viruses per well were added. • (3) After 1 h, different polypeptides were added at a final concentration of 0.01 μM, 0.1 μM, 1 μM, 10 μM, and 50 μM, respectively. • (4) Samples were collected 24 hours after virus infection, and RNA was extracted with total RNA extraction kit as follows. • (5) The supernatant in the wells was discarded, then 350 μl of TRK Lysis Buffer was added to each well and the plate was shaken on the shaker for 5 minutes. • (6) 350 μl of 70% ethanol (DEPC-treated) was added to the well and the plate was shaken on the shaker for 5 minutes. • (7) The mixture in the well was transferred to a RNA extraction column and centrifuged at 12,000 g for 1 min. • (8) The solution collected in the recovery tube was added back to the column and centrifuged at 12,000 g for 1 min. • (9) RNA washing buffer 1 was added to the column and centrifuged at 12,000 g for 30 s. • (10) RNA washing buffer 2 was added to the column and centrifuged at 12,000 g for 1 min. • (11) Step (10) was repeated once. • (12) The column was centrifuged at 12000 g for 2 min to completely remove residual RNA washing buffer. • (13) 50 μl DEPC-treated H2O was added to the column and centrifuge at 12,000 g for 2 min. • (14) 2 μl RNA sample was used according to one step qRT-PCR kit for fluorescence quantification experiment.
RD cells added with R8 penetrating peptide (sequence: RRRRRRRR) were used as a negative control.
RD cells were used to test the antiviral effect of polypeptide P2. EV71 (MOI=0.1) was added to RD cells at 80% confluence. After 1 hour of infection, polypeptide P2 was added at concentrations of 0.01 μM, 0.1 μM, 1 μM, 10 μM, and 50 μM, respectively. The samples were collected 24 hours later, and the total RNA was extracted. The level of viral genomic RNA was detected by qRT-PCR. The cells infected with the same type virus and added with penetrating peptide R8 were used as a control group.
• (1) RD cells were plated in five 100 mm dishes. • (2) After the cells reached 70%-80% confluence, the MEM medium containing 10% serum was replaced with a MEM medium containing 2% serum. […] When the changes were obvious, samples were collected as follows. • (4) The supernatant in the 100 mm dish was transferred into a 15 ml centrifuge tube, and centrifuged at 500 g for 5 min. • (5) The supernatant was transferred into a new 15 ml centrifuge tube, and filtered through 0.22 μm filter membrane with a 50 ml syringe. • (6) RNA was extracted from 100 μl of the supernatant obtained in step (5) and subjected to one step qRT-PCR to measure the virus titer, and the previously extracted virus RNA with known titer was handled together as a control. 3. […]
(In general: Quantitative PCR measures a nucleic acid by following its amplification.)

As to `CC[C@H](C)[C@H](NC(=O)[C@H](Cc1c[nH]c2ccccc12)NC(=O)CNC(=O)[C@H](CCC(N)=O)NC(=O)[C@H](CCC(=O)O)NC(=O)[C@H](CCCNC(=N)N)NC(=O)[C@H](CS)NC(=O)[C@H](Cc1ccc(O)cc1)NC(=O)[C@H](CCC(N)=O)NC(=O)[C@H](CCCNC(=N)N)NC(=O)[C@@H](NC(=O)[C@H](CCC(=O)O)NC(=O)[C@H](CCC(=O)O)NC(=O)CNC(=O)[C@H](CO)NC(=O)CNC(=O)[C@H](CCCNC(=N)N)NC(=O)[C@H](CCCNC(=N)N)NC(=O)[C@H](CCCNC(=N)N)NC(=O)[C@H](CCC(N)=O)NC(=O)[C@H](CCCNC(=N)N)NC(=O)[C@H](CCCNC(=N)N)NC(=O)[C@H](CCCCN)NC(=O)[C@H](CCCCN)NC(=O)[C@H](CCCNC(=N)N)NC(=O)CNC(=O)[C@@H](N)Cc1ccc(O)cc1)C(C)C)C(=O)N[C@H](C(=O)N1CCC[C@H]1C(=O)O)[C@@H](C)CC` [3A-TAT-EP], in data set [1] (RD cells), the viability (usually a read-out of living cells in per cent, often relative to untreated cells) at 24 h, 0.01 µM was found to be 103%; the viability at 24 h, 0.1 µM worked out at 106%; the viability at 24 h, 1 µM is 103%; the viability at 24 h, 10 µM is 103%. Besides, the viability at 24 h, 100 µM in data set [1] (RD cells) amounted to 100%. Besides, the CC50 (in general, the concentration giving 50% cytotoxicity) at 24 h in data set [1] was greater than 100 µM. In data set [2] (0.01 μM polypeptide), the “Cell viability (%)” value is 98.82% and 106.3%. Also, the “Cell viability (%)” value in data set [2] (0.1 μM polypeptide) was 104.9% and 99.14%. In data set [2] (1 μM polypeptide), the “Cell viability (%)” value was 105.5% and 102.9%. Further, the “Cell viability (%)” value in data set [2] (10 μM polypeptide) is 107.1% and 98.61%. In addition, the “Cell viability (%)” value in data set [2] (100 μM polypeptide) was 97.06% and 98.38%. Further, in data set [2], the “cytotoxicity, result in words” value was “not toxic to cells within 100 μM”.

Turning to `CCCCCCCCCCCCCCCC(=O)NCCCC[C@H](NC(=O)CCNC(=O)[C@@H]1CCCN1C(=O)[C@@H](NC(=O)[C@@H](NC(=O)[C@H](Cc1c[nH]c2ccccc12)NC(=O)CNC(=O)[C@H](CCC(N)=O)NC(=O)[C@H](CCC(=O)O)NC(=O)[C@H](CCCNC(=N)N)NC(=O)[C@H](CS)NC(=O)[C@H](Cc1ccc(O)cc1)NC(=O)[C@H](CCC(N)=O)NC(=O)[C@H](CCCNC(=N)N)NC(=O)[C@@H](NC(=O)[C@H](CCC(=O)O)NC(=O)[C@@H](N)CCC(=O)O)C(C)C)[C@@H](C)CC)[C@@H](C)CC)C(=O)O` [EP-PA], the “Relative viral RNA amount (%)” value was 83.07% and 76.47% and 56.74% in data set [3] (EV71 MOI=0.1, 0.01 μM); 79.01% and 67.55% and 53.7% in data set [3] (EV71 MOI=0.1, 0.1 μM); 86.29% and 75.98% and 56.91% in data set [3] (EV71 MOI=0.1, 1 μM).

On to `N=C(N)NCCC[C@H](NC(=O)[C@H](CCCNC(=N)N)NC(=O)[C@H](CCCNC(=N)N)NC(=O)[C@H](CCCNC(=N)N)NC(=O)[C@H](CCCNC(=N)N)NC(=O)[C@H](CCCNC(=N)N)NC(=O)[C@H](CCCNC(=N)N)NC(=O)[C@@H](N)CCCNC(=N)N)C(=O)O` [R8, reference compound], for which, in data set [1] (RD cells, Cell viability (%)), the viability at 24 h stood at 104%.

Consider “EP-CHOL: SEQ ID NO: 9, EEVRQYCREQGWIIP-AK-cholesterol (Chol)”, for which the “Relative viral RNA amount (%)” value in data set [3] (EV71 MOI=0.1, 0.01 μM) was 75.49% and 59.54% and 59.75%; in data set [3] (EV71 MOI=0.1, 0.1 μM) it was 75.76% and 70.99% and 60.98%; in data set [3] (EV71 MOI=0.1, 1 μM), 96.78% and 76.07% and 59.55%; in data set [3] (EV71 MOI=0.1, 10 μM), 39.12% and 66.18% and 37.09%.

On to RRRRRRRRAISDLLAS [P1], for which, in data set [1] (RD cells), the viability at 24 h, 0.01 µM worked out at 103%; the viability at 24 h, 0.1 µM stood at 106%; the viability at 24 h, 1 µM was 103%; the viability at 24 h, 10 µM was determined as 103%. In addition, in data set [1] (RD cells), the viability at 24 h, 100 µM was found to be 100%. In addition, the CC50 at 24 h in data set [1] is greater than 100 µM. Further, in data set [2] (0.01 μM polypeptide), the “Cell viability (%)” value was 98.82% and 106.3%. The “Cell viability (%)” value in data set [2] (0.1 μM polypeptide) was 104.9% and 99.14%. Besides, in data set [2] (1 μM polypeptide), the “Cell viability (%)” value was 105.5% and 102.9%. Moreover, the “Cell viability (%)” value in data set [2] (10 μM polypeptide) was 107.1% and 98.61%. Further, the “Cell viability (%)” value in data set [2] (100 μM polypeptide) was 97.06% and 98.38%. For the same compound, in data set [2], the “cytotoxicity, result in words” value was “not toxic to cells within 100 μM”.
